Values quoted from earlier work in patent publication US20100273275A1, “Methods of determining levels of steroid fractions utilizing SHBG calculations” (priority 2005, published 2010).

Columns and labels:
SHBG = biological target: T1, SHBG (Homo sapiens, UniProt P04278); settings: for KPS (association constant for SHBG-binding to a steroid ligand): constants used for calculations, Dunn et al. (1981), Moll et al. (1981), Rosner (1991)
T1 sequence (P04278 30-402): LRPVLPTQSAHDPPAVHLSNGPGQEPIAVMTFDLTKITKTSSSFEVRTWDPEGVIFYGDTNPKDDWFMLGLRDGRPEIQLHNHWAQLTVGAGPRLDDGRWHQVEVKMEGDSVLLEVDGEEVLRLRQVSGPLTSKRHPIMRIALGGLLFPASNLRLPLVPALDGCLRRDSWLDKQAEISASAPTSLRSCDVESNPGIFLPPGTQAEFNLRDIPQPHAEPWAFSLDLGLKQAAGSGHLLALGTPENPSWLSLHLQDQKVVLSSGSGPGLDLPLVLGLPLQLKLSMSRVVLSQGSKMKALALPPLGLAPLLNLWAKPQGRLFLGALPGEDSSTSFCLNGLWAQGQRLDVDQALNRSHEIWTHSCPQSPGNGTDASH

albumin = albumin (Homo sapiens, UniProt P02768); settings: for KAS (association constant for albumin-binding to a steroid ligand): constants used for calculations, Dunn et al. (1981), Moll et al. (1981), Rosner (1991)
[1] = constant used for free and bioavailable testosterone calculation

Chain of albumin (P02768 25-609): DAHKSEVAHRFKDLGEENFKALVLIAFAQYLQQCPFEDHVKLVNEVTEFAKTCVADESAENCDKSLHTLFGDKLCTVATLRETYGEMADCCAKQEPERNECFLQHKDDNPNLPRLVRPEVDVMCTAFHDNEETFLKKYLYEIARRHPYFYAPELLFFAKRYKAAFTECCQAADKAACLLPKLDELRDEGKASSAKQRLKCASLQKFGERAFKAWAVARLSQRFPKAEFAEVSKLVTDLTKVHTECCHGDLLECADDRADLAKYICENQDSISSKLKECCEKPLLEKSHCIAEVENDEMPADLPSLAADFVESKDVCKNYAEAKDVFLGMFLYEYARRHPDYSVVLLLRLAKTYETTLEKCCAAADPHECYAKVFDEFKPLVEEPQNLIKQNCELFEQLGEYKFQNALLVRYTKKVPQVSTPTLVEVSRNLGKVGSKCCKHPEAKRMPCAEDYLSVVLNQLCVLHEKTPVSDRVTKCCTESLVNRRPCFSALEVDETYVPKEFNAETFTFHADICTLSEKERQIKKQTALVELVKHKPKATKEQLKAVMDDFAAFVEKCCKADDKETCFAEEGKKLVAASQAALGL

Row | SMILES | KPS (association constant for SHBG-binding to a steroid ligand) (SHBG) | KAS (association constant for albumin-binding to a steroid ligand) (albumin) | KS (association constant, SHBG) (SHBG; [1]) | KA (association constant, albumin) (albumin; [1])
1 | C[C@]12CCC(=O)C=C1CC[C@@H]1[C@@H]2CC[C@]2(C)C(=O)CC[C@@H]12 [Androstenedione] | 0.029 [M^−1] × 10^9 | 20000 [M^−1] |  | 
2 | C[C@]12CC[C@H](O)CC1=CC[C@@H]1[C@@H]2CC[C@]2(C)C(=O)CC[C@@H]12 [Dehydroepiandrosterone] |  | 40000 [M^−1] |  | 
3 | C[C@]12CC[C@H](O)CC1=CC[C@@H]1[C@@H]2CC[C@]2(C)C(=O)CC[C@@H]12 [Dihydroandrosterone] |  | 180000 [M^−1] |  | 
4 | C[C@]12CCC(=O)C[C@@H]1CC[C@@H]1[C@@H]2CC[C@]2(C)[C@@H](O)CC[C@@H]12 [Dihydrotestosterone] | 2.0 [M^−1] × 10^9 | 79800 [M^−1] |  | 
5 | C[C@]12CC[C@H]3[C@@H](CCC4=CC(=O)CC[C@@]43C)[C@@H]1CC[C@@H]2O [Testosterone] |  | 36000 [M^−1] | 1e+09 L/mol | 36000 L/mol
